Assay results taken from patent US10576084B2, “Salt of fused heterocyclic derivative and crystal thereof” (KISSEI PHARMACEUTICAL CO., LTD., priority 2010, dated 2020).
Counter-ions that a name gives are not always drawn.

Columns and labels:
[1] = format: physicochemical; conditions: for saturation solubility in 1st fluid: pH 1.2; for saturation solubility in 2nd fluid: pH 6.8
Method: Saturation Solubility Test
The compound (A) obtained in Example 2, the compound (B) crystals obtained in Comparative Example 2, and the compound (C) obtained in Comparative Example 3 were suspended in water, or in 1st fluid for dissolution test (hereinafter, referred to as “1st fluid”) or 2nd fluid (hereinafter, referred to as “2nd fluid”) described in the Reagents·Test Solutions for General Tests, the Japanese Pharmacopoeia, 15th Edition. The suspensions were incubated at 37° C. After filtering a part of the suspensions, the concentrations of the resulting filtrates were measured by HPLC, and the saturation solubilities were calculated and compared. The HPLC measurement conditions are as follows.
• Detector: Ultraviolet and visible spectrophotometer /wavelength: 225 nm • Column: GL Science Inertsil ODS-3,5 μm, 4.6×250 mm • Column temperature: a constant temperature of around 35° C. • Flow rate: 1.0 mL/min • Mobile phase A: 10 mM potassium dihydrogen phosphate aqueous solution adjusted to pH 5.5 with potassium hydroxide aqueous solution • Mobile phase B: Acetonitrile • Mobile phase ratio 0 to 30 min: mobile phase A/mobile phase B=70/30
The saturation solubility values of compound (A), compound (B) crystals, and compound (C) in water, 1st fluid, and 2nd fluid are shown in Table 2. […] The saturation solubility of compound (A) in 1st fluid was about 30 times and about 2 times higher than those of compound (B) crystals and compound (C), respectively. In 2nd fluid, the saturation solubility of compound (A) was about 10 times and about 70 times higher than those of compound (B) crystals and compound (C), respectively.

[2] = in vivo; set-up: species or system SD rats; conditions: male, SD, rat; for maximum drug concentration time (Tmax): po, 3 mg/kg
Method: Assay for Oral Absorbability
1) Preparation of Sample for Drug Concentration Measurement by Administration through Tail Vein
SD rats (Charles River, male, 7 weeks of age, 170 to 210 g) were used as experimental animals after fasting the rats overnight. N,N-dimethylacetamide (0.2 mL), saline (0.798 mL) and 2N-NaOH (0.002 mL) were added in these amounts with respect to 1 mg of the compound (B) to prepare a 1.0 mg/mL solution. The solution was then administered in a 1 mL/kg dose (1 mg/kg) through the tail vein under no anesthesia (3 samples). The intravenous administration through tail was performed using a 26G injection needle and a 1 mL syringe. Blood was collected through the subclavian veins after 2, 15, 60, 120, 240 and 360 minutes from the intravenous administration through tail. The blood was centrifuged, and the plasma was used as a sample for blood drug concentration measurement.
2) Preparation of Sample for Drug Concentration Measurement by Oral Administration
SD rats (Charles River, male, 7 weeks of age, 220 to 290 g) were used as experimental animals after fasting the rats overnight. A 0.5% methylcellulose aqueous solution (5 mL) was added with respect to 3 mg of compound (A) or compound (B) (in terms of a free compound) to prepare a 0.6 mg/mL drug solution. Each solution was orally administered to the rats in a 5 mL/kg dose (3 mg/kg) (3 samples each). The oral administration was performed using a rat sonde and a 2.5-mL syringe. […]
A suitable internal standard substance solution (0.1 mL) was added to the blood plasma (0.025 mL) obtained in 1) and 2) using an ordinary method. […] Blood plasma drug concentration was measured using the LC-MS/MS technique under the conditions below. […]
Bioavailability (%) was calculated from the value of the area under the blood drug concentration-time curve determined by using a WinNonlin Professional (Pharsight Corporation) from the blood drug concentration at each time point obtained as above after the intravenous administration of the compound (B) through tail and the oral administration of the compound (A) or the compound (B).

[3] = Stability test (storage under 90° C. open conditions, purity by HPLC); format: physicochemical
Method: Stability Test The compound (A) obtained in Example 2 was stored under 90° C. open conditions to examine stability. In stability measurement, the purity of a sample was measured by HPLC at the initial point and after 8 days, and the results were compared. The HPLC measurement conditions are as follows. Measurement Conditions • Detector: Ultraviolet and visible spectrophotometer/wavelength: 225 nm • Column: GL Science Inertsil ODS-3,5 μm, 4.6×250 mm • Column temperature: Constant temperature around 35° C. • Flow rate: 1.0 mL/min • Mobile phase A: 10 mM potassium dihydrogen phosphate aqueous solution adjusted to pH 5.5 with potassium hydroxide aqueous solution • Mobile phase B: Acetonitrile • (Mobile phase ratios are shown in Table 4) • Area measurement range: 54 minutes from the start of the analysis. Areas of the peaks in the blank were excluded from the calculations.

saturation solubility in water [1] | saturation solubility in 1st fluid [1] | saturation solubility in 2nd fluid [1] | bioavailability [2] | maximum drug concentration time (Tmax) [2] | Purity (%) after 8 days ([3]; after 8 days under 90° C. open conditions) | Purity (%) at initial point ([3]; initial point, before storage) | Structure (SMILES)
4165 µg/mL | 4 µg/mL | 3738 µg/mL | ~59% | 0.583 h | 99.6% | 99.6% | COc1cc(F)c(-n2c(=O)[nH]c3csc(C(=O)O)c3c2=O)cc1OCc1c(OC)ccc(F)c1F (single isomer, unassigned) [compound (A), 3-[2-fluoro-5-(2,3-difluoro-6-methoxybenzyloxy)-4-methoxyphenyl]-2,4-dioxo-1,2,3,4-tetrahydrothieno[3,4-d]pyrimidine-5-carboxylic acid choline salt]
7 µg/mL | 0.14 µg/mL | 367 µg/mL | – | 3.33 h | – | – | COc1cc(F)c(-n2c(=O)[nH]c3csc(C(=O)O)c3c2=O)cc1OCc1c(OC)ccc(F)c1F (single isomer, unassigned) [compound (B), 3-[2-fluoro-5-(2,3-difluoro-6-methoxybenzyloxy)-4-methoxyphenyl]-2,4-dioxo-1,2,3,4-tetrahydrothieno[3,4-d]pyrimidine-5-carboxylic acid, reference compound]
68 µg/mL | 2 µg/mL | 52 µg/mL | – | – | – | – | COc1cc(F)c(-n2c(=O)[nH]c3csc(C(=O)O)c3c2=O)cc1OCc1c(OC)ccc(F)c1F.COc1cc(F)c(-n2c(=O)[nH]c3csc(C(=O)O)c3c2=O)cc1OCc1c(OC)ccc(F)c1F.c1ccc(CNCCNCc2ccccc2)cc1 [compound (C), 3-[2-Fluoro-5-(2,3-difluoro-6-methoxybenzyloxy)-4-methoxyphenyl]-2,4-dioxo-1,2,3,4-tetrahydrothieno[3,4-d]pyrimidine-5-carboxylic acid.1/2N,N′-dibenzylethylenediamine salt, reference compound]
